We go through one molecule from patent publication US20200222418A1, “USE OF PHENOTHIAZINE DERIVATIVE IN THE TREATMENT OF INFECTION CAUSED BY BACTERIA CARRYING TYPE IV PILI” (priority 2017, published 2020).

Each structure is given as a SMILES string.

The test has as its system Nm2C4.3 colonization of human brain vessels. The arrangement: species or system Neisseria meningitidis. The following applies: 40 μM for 30 min.

Protocol: A. Immunofluorescence analysis of CD31 (green), N. meningitidis colonies (red) and nucleus (blue) in the cortical region of serial brain sections from the same donor infected with Nm2C4.3 wild-type strain for 1 h, then treated with Trifluoperazine (40 μM for 30 min) or PBS alone, as a control. Scale bars, 20 μm. Images are representative of 2 different human brain sections. B. Mean±s.e.m. of the vascular colonization index. Analysis of 50 sections per brain section, n=2 sections per condition. ***P<0.001, one-way ANOVA.
In situ infection of fresh human brain sections was performed as described previously (Bernard et al, 2014). […] Adherent meningococci were detected by immunofluorescence analysis: brain sections were incubated with the following primary antibodies for 2 h in PBS/BSA 0.1%: monoclonal anti-human CD31/PECAM-1 mouse monoclonal antibody (clone HEC7, ABCAM, ab119339) and a rabbit polyclonal serum anti-Nm 2C4.3 strain (1:3000). […] Entire samples were scanned using a Lamina (Perkin Helmer) and were further analysed using confocal microscopy (spinning disk Leica, 63x). Quantification analysis of the images (n=50 per section) was performed using ImageJ software (NIH). […]

As to `CN1CCN(CCCN2c3ccccc3Sc3ccc(C(F)(F)F)cc32)CC1` [Trifluoperazine], the “dispersal of meningococcal microcolonies in infected brain sections” value is on record as “induced the dispersal”.
